# Experimental data from ChEMBL document CHEMBL1144986, “Binding of beta-carbolines at 5-HT(2) serotonin receptors” (Bioorg Med Chem Lett, 2003).
# Assays:
# [1] = target: T1, 5-hydroxytryptamine receptor 2C (Rattus norvegicus, UniProt P08909); assay: Binding affinity towards cloned rat 5-hydroxytryptamine 2C receptor from fundus tissue by [3H]mesulergine displacement.
# T1 sequence (P08909 whole entry): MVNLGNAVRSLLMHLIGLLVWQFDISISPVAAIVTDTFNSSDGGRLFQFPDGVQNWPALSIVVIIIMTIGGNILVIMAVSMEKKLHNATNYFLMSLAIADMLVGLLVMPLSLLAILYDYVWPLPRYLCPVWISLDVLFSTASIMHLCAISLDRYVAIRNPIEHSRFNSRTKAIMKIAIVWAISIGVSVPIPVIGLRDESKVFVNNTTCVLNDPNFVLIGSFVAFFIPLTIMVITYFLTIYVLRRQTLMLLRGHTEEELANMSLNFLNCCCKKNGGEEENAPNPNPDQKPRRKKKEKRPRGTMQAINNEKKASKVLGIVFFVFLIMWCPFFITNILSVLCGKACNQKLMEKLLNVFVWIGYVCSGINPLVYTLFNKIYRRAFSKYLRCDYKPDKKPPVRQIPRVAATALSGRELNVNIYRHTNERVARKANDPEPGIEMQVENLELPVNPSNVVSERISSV
# [2] = target: T2, 5-hydroxytryptamine receptor 2A (Rattus norvegicus, UniProt P14842); assay: Binding affinity towards cloned rat 5-hydroxytryptamine 2A receptor by [3H]ketanserin displacement.
# T2 sequence (P14842 whole entry): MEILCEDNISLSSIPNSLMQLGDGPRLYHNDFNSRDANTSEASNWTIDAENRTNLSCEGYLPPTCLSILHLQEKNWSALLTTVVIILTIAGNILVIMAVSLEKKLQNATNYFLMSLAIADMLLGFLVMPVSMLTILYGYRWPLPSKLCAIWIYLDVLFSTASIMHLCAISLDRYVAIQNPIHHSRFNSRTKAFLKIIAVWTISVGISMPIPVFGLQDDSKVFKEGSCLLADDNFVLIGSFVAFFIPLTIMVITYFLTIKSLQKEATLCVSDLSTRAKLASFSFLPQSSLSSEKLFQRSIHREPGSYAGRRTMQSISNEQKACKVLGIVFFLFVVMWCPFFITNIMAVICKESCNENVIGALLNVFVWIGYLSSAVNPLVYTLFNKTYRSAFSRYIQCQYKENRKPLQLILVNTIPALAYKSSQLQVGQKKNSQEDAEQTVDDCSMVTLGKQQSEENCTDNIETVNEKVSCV
# [3] = target: T2, 5-hydroxytryptamine receptor 2A; assay: Binding affinity for rat 5-hydroxytryptamine 2A receptor using [3H]DOB
# [4] = target: Sodium-dependent noradrenaline transporter (Homo sapiens, UniProt P23975); assay: Binding affinity towards NET
# Chain of Sodium-dependent noradrenaline transporter (P23975 whole entry): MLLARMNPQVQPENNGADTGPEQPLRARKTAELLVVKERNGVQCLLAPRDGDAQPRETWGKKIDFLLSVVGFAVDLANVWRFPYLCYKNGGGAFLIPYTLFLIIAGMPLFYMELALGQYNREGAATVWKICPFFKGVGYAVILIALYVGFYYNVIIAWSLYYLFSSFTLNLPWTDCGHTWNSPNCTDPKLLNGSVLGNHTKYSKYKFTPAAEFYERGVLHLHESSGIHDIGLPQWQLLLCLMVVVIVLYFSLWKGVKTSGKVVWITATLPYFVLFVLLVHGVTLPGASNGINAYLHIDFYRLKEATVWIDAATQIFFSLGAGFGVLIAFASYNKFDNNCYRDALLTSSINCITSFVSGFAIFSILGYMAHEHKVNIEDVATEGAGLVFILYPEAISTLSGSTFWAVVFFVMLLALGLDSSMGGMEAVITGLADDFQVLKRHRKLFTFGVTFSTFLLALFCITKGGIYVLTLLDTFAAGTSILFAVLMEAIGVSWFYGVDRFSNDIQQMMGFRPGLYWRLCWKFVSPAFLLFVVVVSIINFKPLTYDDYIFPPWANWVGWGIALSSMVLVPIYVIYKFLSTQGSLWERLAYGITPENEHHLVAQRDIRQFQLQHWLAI
# [5] = target: Sodium-dependent serotonin transporter (Homo sapiens, UniProt P31645); assay: Binding affinity towards Serotonin transporter
# Chain of Sodium-dependent serotonin transporter (P31645 whole entry): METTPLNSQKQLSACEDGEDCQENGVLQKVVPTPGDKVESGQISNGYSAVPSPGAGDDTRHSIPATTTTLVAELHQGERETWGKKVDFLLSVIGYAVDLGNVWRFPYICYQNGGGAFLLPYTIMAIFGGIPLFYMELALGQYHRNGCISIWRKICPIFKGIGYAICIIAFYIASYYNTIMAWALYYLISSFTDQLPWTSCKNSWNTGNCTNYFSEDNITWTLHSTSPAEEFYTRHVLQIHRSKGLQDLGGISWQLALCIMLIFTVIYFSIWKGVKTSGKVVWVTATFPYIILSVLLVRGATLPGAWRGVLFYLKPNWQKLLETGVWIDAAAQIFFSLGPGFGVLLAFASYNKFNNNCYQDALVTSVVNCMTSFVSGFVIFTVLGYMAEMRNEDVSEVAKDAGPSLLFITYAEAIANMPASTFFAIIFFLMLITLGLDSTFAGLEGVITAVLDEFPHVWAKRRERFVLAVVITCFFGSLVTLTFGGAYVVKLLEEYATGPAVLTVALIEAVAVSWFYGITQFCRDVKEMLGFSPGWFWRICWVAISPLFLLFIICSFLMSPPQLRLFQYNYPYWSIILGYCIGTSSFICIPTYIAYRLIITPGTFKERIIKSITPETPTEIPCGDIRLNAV
# [6] = target: 5-hydroxytryptamine receptor 5A (Homo sapiens, UniProt P47898); assay: Binding affinity towards 5-HT5A receptor
# Chain of 5-hydroxytryptamine receptor 5A (P47898 whole entry): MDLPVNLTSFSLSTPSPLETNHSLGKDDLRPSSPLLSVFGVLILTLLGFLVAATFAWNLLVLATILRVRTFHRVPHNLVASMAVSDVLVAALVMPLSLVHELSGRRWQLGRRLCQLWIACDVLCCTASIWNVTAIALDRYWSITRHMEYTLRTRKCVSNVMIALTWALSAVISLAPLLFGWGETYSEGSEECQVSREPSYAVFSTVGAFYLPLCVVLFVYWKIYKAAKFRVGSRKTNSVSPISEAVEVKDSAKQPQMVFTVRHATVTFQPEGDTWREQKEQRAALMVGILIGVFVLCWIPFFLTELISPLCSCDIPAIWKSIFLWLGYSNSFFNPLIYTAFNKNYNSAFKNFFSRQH
# [7] = target: Serotonin 3 (5-HT3) receptor; assay: Binding affinity towards 5-HT3 receptor; type: protein-complex assay
# [8] = target: Dopamine receptor; assay: Binding affinity towards Dopamine receptor; type: protein assay
# [9] = target: T3, 5-hydroxytryptamine receptor 1A (Homo sapiens, UniProt P08908); assay: Binding affinity towards 5-hydroxytryptamine 1A receptor
# T3 sequence (P08908 whole entry): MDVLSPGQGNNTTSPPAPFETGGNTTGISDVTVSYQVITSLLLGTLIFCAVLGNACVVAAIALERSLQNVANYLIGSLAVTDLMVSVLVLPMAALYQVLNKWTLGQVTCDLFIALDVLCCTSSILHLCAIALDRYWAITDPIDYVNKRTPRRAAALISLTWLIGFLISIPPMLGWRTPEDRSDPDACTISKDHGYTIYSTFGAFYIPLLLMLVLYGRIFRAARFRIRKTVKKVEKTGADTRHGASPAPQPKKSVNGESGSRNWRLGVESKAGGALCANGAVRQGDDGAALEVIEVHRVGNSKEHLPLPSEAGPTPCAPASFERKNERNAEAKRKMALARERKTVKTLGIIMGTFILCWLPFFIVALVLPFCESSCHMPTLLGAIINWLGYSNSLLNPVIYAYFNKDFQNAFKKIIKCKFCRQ
# [10] = target: GABA-A receptor; anion channel; assay: Binding affinity towards GABA-A benzodiazepine receptor; type: protein-complex assay, Rattus norvegicus
# [11] = target: T4, 5-hydroxytryptamine receptor 2C (Homo sapiens, UniProt P28335); assay: Binding affinity towards 5-hydroxytryptamine 2C receptor
# T4 sequence (P28335 whole entry): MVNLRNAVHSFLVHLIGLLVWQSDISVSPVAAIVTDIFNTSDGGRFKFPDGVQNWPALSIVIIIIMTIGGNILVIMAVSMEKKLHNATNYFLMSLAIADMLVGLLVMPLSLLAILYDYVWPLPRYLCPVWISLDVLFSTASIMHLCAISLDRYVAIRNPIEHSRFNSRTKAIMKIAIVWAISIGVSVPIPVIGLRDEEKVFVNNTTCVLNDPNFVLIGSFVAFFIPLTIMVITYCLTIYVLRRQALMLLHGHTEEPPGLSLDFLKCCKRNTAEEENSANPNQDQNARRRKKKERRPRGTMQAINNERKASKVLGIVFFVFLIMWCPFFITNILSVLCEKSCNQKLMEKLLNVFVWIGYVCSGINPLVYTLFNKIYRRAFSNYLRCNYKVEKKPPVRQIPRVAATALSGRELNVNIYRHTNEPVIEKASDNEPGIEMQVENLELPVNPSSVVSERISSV
# [12] = target: 5-hydroxytryptamine receptor 6 (Homo sapiens, UniProt P50406); assay: Binding affinity towards human 5-hydroxytryptamine 6 receptor
# Chain of 5-hydroxytryptamine receptor 6 (P50406 whole entry): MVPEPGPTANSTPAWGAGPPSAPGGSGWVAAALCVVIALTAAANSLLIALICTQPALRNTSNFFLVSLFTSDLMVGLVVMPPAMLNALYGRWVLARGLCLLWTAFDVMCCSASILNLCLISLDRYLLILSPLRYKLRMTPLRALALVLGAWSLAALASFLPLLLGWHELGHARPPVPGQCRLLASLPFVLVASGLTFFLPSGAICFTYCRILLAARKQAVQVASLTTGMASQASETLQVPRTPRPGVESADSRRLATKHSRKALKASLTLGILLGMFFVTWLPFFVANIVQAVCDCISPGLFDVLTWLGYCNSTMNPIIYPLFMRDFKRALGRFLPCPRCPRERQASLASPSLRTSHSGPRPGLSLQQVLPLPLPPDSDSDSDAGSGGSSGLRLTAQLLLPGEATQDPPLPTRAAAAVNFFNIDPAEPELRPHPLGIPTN
# [13] = target: 5-hydroxytryptamine receptor 1B (Homo sapiens, UniProt P28222); assay: Binding affinity towards 5-hydroxytryptamine 1B receptor
# Chain of 5-hydroxytryptamine receptor 1B (P28222 whole entry): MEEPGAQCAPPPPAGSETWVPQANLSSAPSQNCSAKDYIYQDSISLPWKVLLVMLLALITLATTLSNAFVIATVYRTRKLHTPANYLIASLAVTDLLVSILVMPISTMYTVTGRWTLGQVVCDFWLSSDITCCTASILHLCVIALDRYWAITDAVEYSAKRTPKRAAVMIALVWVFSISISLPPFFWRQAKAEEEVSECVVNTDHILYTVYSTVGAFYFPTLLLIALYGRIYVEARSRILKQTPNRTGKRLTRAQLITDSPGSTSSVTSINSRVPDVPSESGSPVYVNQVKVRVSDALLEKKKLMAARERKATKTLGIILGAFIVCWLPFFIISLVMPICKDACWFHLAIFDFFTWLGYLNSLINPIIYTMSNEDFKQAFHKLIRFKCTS
# [14] = target: T2, 5-hydroxytryptamine receptor 2A; assay: Binding affinity towards 5-hydroxytryptamine 2A receptor
# [15] = target: 5-hydroxytryptamine receptor 1D (Homo sapiens, UniProt P28221); assay: Binding affinity towards 5-hydroxytryptamine 1D receptor
# Chain of 5-hydroxytryptamine receptor 1D (P28221 whole entry): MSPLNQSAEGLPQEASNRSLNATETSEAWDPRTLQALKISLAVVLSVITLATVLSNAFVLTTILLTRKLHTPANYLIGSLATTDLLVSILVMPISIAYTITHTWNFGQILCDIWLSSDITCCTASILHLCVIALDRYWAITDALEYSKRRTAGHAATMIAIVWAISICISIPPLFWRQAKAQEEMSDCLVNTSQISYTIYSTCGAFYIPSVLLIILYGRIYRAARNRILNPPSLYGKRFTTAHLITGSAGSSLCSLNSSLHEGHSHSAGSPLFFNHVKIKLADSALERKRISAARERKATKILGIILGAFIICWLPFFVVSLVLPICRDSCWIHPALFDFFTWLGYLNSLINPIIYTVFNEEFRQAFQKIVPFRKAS
# [16] = target: Sodium-dependent dopamine transporter (Bos taurus, UniProt P27922); assay: Binding affinity towards DAT (bovine)
# Chain of Sodium-dependent dopamine transporter (P27922 whole entry): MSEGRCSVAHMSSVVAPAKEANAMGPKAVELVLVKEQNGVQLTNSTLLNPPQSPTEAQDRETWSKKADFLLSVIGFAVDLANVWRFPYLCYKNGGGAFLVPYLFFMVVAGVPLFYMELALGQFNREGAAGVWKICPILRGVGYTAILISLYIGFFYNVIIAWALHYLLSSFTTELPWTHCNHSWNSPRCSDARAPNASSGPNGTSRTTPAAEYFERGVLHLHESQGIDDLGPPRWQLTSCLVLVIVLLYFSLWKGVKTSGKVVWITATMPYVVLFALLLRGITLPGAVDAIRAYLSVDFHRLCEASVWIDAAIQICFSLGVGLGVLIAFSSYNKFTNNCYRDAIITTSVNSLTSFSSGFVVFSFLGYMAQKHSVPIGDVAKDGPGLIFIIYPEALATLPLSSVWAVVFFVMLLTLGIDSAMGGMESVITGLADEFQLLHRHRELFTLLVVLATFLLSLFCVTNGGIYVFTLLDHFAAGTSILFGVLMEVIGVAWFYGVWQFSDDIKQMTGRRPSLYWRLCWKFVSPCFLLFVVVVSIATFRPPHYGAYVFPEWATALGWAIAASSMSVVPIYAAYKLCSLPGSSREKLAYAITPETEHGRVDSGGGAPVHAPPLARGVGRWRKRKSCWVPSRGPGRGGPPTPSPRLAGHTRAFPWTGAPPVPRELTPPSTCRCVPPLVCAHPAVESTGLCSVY
# [17] = target: 5-hydroxytryptamine receptor 7 (Homo sapiens, UniProt P34969); assay: Binding affinity towards 5-hydroxytryptamine 7 receptor
# Chain of 5-hydroxytryptamine receptor 7 (P34969 whole entry): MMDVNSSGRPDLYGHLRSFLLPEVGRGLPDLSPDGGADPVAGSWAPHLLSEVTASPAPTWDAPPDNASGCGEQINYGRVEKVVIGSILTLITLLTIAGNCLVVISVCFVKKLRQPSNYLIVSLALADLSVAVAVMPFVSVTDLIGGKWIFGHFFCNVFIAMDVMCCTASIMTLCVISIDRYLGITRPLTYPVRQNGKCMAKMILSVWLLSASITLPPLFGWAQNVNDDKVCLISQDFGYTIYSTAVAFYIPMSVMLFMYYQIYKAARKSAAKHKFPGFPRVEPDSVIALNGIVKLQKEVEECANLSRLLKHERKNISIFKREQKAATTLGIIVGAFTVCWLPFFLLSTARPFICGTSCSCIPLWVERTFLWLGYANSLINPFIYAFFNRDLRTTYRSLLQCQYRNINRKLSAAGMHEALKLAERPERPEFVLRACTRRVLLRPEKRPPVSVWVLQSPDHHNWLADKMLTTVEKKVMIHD
# [18] = target: Muscarinic acetylcholine receptor; assay: Binding affinity towards Muscarinic acetylcholine receptor; type: protein assay
# [19] = target: Alpha-2A adrenergic receptor (Homo sapiens, UniProt P08913); assay: Binding affinity towards alpha-2A-Adrenergic receptor
# [20] = target: Alpha-2B adrenergic receptor (Homo sapiens, UniProt P18089); assay: Binding affinity towards Alpha-2B adrenergic receptor
# [21] = target: Alpha-1A adrenergic receptor (Homo sapiens, UniProt P35348); assay: Binding affinity towards Alpha-1A adrenergic receptor
# Chain of Alpha-1A adrenergic receptor (P35348 whole entry): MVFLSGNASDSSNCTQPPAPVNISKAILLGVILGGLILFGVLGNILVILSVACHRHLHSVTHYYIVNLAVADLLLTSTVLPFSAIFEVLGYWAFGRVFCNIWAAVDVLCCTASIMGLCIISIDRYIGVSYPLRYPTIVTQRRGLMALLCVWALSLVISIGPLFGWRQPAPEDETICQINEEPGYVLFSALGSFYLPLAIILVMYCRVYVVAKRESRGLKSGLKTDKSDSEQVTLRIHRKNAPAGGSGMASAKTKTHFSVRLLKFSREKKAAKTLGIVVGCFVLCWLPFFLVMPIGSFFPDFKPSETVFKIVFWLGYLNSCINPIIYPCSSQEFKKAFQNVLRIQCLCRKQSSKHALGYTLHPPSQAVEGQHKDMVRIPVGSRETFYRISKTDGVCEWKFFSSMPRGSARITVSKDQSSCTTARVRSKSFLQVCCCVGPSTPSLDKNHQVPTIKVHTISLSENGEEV
# [22] = target: Alpha-2C adrenergic receptor (Homo sapiens, UniProt P18825); assay: Binding affinity towards Alpha-2C adrenergic receptor
# [23] = target: Beta-1 adrenergic receptor (Homo sapiens, UniProt P08588); assay: Binding affinity towards Beta-1A adrenergic receptor
# [24] = target: Beta-2 adrenergic receptor (Homo sapiens, UniProt P07550); assay: Binding affinity towards Beta-2A adrenergic receptor
# [25] = target: Alpha-1B adrenergic receptor (Homo sapiens, UniProt P35368); assay: Binding affinity towards Alpha-1B adrenergic receptor
# [26] = target: T2, 5-hydroxytryptamine receptor 2A; assay: Binding affinity towards cloned rat 5-hydroxytryptamine 2A receptor from fundus tissue was determined using [3H]mesulergine as radioligand
# [27] = target: T2, 5-hydroxytryptamine receptor 2A; assay: Binding affinity towards cloned rat Inhibition of binding towards 5-hydroxytryptamine 2A receptor at 100 nM concentration was determined using [3H]ketanserin as radioligand
# [28] = target: T2, 5-hydroxytryptamine receptor 2A; assay: Binding affinity towards cloned rat Inhibition of binding towards 5-hydroxytryptamine 2A receptor at 100 nM concentration was determined using [3H]DOB as radioligand
# [29] = target: Muscarinic acetylcholine receptor; assay: Binding affinity towards Muscarinic receptor; type: protein assay
smiles,measurement,setting,value
Brc1ccc2c3c([nH]c2c1)CNCC3,Ki,[1],250 nM
same,Ki,[2],240 nM
COc1cccc2c3c([nH]c12)CNCC3,Ki,[1],1270 nM
same,Ki,[3],400 nM
same,Ki,[2],640 nM
COc1cccc2[nH]c3c(c12)CCNC3,Ki,[1],140 nM
same,Ki,[3],75 nM
same,Ki,[2],130 nM
Brc1cccc2c3c([nH]c12)C=NCC3,Ki,[1],140 nM
same,Ki,[3],115 nM
same,Ki,[2],110 nM
CC1=NCCc2c1[nH]c1ccccc21,Ki,[4],> 10000 nM
same,Ki,[5],> 10000 nM
same,Ki,[6],845 nM
same,Ki,[7],> 10000 nM
same,Ki,[8],> 10000 nM
same,Ki,[9],> 1670 nM
same,Ki,[10],> 10000 nM
same,Ki,[11],1860 nM
same,Ki,[12],1450 nM
same,Ki,[13],> 10000 nM
same,Ki,[14],1150 nM
same,Ki,[15],> 10000 nM
same,Ki,[16],> 10000 nM
same,Ki,[17],280 nM
same,Ki,[18],> 10000 nM
COc1ccc2c(c1)[nH]c1c(C)nccc12 [HARMINE],Ki,[4],3260 nM
same,Ki,[5],> 10000 nM
same,Ki,[6],> 10000 nM
same,Ki,[19],2540 nM
same,Ki,[7],> 10000 nM
same,Ki,[8],> 10000 nM
same,Ki,[9],> 10000 nM
same,Ki,[10],> 10000 nM
same,Ki,[11],9340 nM
same,Ki,[12],1480 nM
same,Ki,[13],> 10000 nM
same,Ki,[14],7790 nM
same,Ki,[20],1130 nM
same,Ki,[15],> 10000 nM
same,Ki,[16],> 10000 nM
same,Ki,[21],> 10000 nM
same,Ki,[22],810 nM
same,Ki,[23],> 10000 nM
same,Ki,[17],5500 nM
same,Ki,[24],> 10000 nM
same,Ki,[25],> 10000 nM
same,Ki,[18],> 10000 nM
c1ccc2c3c([nH]c2c1)CNCC3 [TRYPTOLINE],Ki,[1],> 10000 nM
same,Ki,[3],3000 nM
same,Ki,[2],3800 nM
COc1ccc2c3c([nH]c2c1)C=NCC3 [CGS-19281A],Ki,[1],> 10000 nM
same,Ki,[3],> 10000 nM
same,Ki,[2],> 10000 nM
COc1cccc2[nH]c3c(c12)CCN=C3,Ki,[1],75 nM
same,Ki,[3],500 nM
same,Ki,[2],470 nM
CC(C)Oc1cccc2[nH]c3c(c12)CCN=C3,Ki,[26],1410 nM
Brc1ccc2[nH]c3c(c2c1)CCN=C3,Ki,[1],1200 nM
same,Ki,[2],1720 nM
Brc1ccc2c3c([nH]c2c1)C=NCC3,Ki,[1],2100 nM
same,Ki,[2],1330 nM
C1=NCCc2c1[nH]c1ccccc21,Ki,[1],1100 nM
same,Ki,[27],2560 nM
same,Ki,[28],2150 nM
COc1cccc2c3c([nH]c12)C=NCC3,Ki,[1],1350 nM
same,Ki,[3],2550 nM
same,Ki,[2],3240 nM
COc1ccc2[nH]c3c(c2c1)CCNC3,Ki,[1],2190 nM
same,Ki,[3],1400 nM
same,Ki,[2],4780 nM
CC1=NCCc2c1[nH]c1cccc(OC(C)C)c21,Ki,[1],26 nM
same,Ki,[2],470 nM
COc1ccc2[nH]c3c(c2c1)CCN=C3,Ki,[1],1170 nM
same,Ki,[2],2370 nM
COc1ccc2[nH]c3c(c2c1)CCN=C3C,Ki,[4],> 4100 nM
same,Ki,[5],> 10000 nM
same,Ki,[6],> 10000 nM
same,Ki,[7],> 10000 nM
same,Ki,[8],> 10000 nM
same,Ki,[9],> 10000 nM
same,Ki,[10],> 10000 nM
same,Ki,[11],924 nM
same,Ki,[12],1930 nM
same,Ki,[13],> 10000 nM
same,Ki,[14],5600 nM
same,Ki,[15],> 10000 nM
same,Ki,[16],> 10000 nM
same,Ki,[17],2960 nM
same,Ki,[18],> 10000 nM
Brc1cccc2[nH]c3c(c12)CCN=C3,Ki,[1],140 nM
same,Ki,[2],390 nM
C1=NCCc2c1[nH]c1cccc(OCc3ccccc3)c21,Ki,[1],200 nM
same,Ki,[2],124 nM
Brc1ccc2[nH]c3c(c2c1)CCNC3,Ki,[1],210 nM
same,Ki,[2],500 nM
COc1ccc2c3c([nH]c2c1)CNCC3,Ki,[1],> 10000 nM
same,Ki,[5],> 10000 nM
same,Ki,[6],> 10000 nM
same,Ki,[19],1370 nM
same,Ki,[7],> 10000 nM
same,Ki,[3],2200 nM
same,Ki,[9],> 10000 nM
same,Ki,[2],4620 nM
same,Ki,[11],> 10000 nM
same,Ki,[12],> 10000 nM
same,Ki,[29],> 10000 nM
same,Ki,[13],> 10000 nM
same,Ki,[14],4620 nM
same,Ki,[20],140 nM
same,Ki,[15],> 10000 nM
same,Ki,[21],> 10000 nM
same,Ki,[22],1740 nM
same,Ki,[23],> 10000 nM
same,Ki,[17],1400 nM
same,Ki,[24],> 10000 nM
same,Ki,[25],> 10000 nM
Brc1cccc2[nH]c3c(c12)CCNC3,Ki,[1],130 nM
same,Ki,[3],80 nM
same,Ki,[2],180 nM
Brc1cccc2c3c([nH]c12)CNCC3,Ki,[1],48 nM
same,Ki,[3],21 nM
same,Ki,[2],22 nM
